Test results taken from patent US20240218022A1, “ANTI-VISTA MACROCYCLIC PEPTIDES AND COMPOSITIONS” (BRISTOL-MYERS SQUIBB COMPANY, priority 2022, published 2024).
Positions of bridges follow the written chain, without caps; N, C: chain ends. Non-standard residues stand in square brackets, D forms with d. Residues, ends and D or L forms follow the SMILES beside them. ξ: configuration not given here. Ile(3ξ) = CCC(C)[C@H](N)C(=O)O; Ahp(2) = CCCCC[C@H](N)C(=O)O; NHexGly = CCCCCCNCC(=O)O; Nle = CCCC[C@H](N)C(=O)O; Orn = NCCC[C@H](N)C(=O)O; Nva = CCC[C@H](N)C(=O)O

These compounds were tested against T1, mouse VISTA (mVISTA) (Mus musculus, UniProt Q9D659) (assay: Cell-Based Binding High-Content Assay For mVISTA (HC CBA mVISTA)). Details: 293T cells expressing mouse VISTA; competition with biotinylated peptide (2 nM); read-out: HC CBA mVISTA IC50.
T1 construct: expressed in transfected cells; host or cells: Human embryonic kidney 293T cells
T1 sequence (Q9D659 33-308): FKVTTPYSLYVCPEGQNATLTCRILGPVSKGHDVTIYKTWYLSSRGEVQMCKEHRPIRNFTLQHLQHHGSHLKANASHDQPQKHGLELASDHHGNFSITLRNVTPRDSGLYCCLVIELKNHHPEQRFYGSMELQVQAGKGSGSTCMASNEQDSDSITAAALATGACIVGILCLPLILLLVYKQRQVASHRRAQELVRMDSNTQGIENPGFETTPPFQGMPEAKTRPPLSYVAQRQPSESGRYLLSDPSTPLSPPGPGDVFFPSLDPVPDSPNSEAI
Procedure, shortened: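 Read-out: Alexa 647–streptavidin signal imaged on fixed, Hoechst-stained mVISTA-293T cells, with IC50 taken from a four-parameter logistic curve. Compounds competed with 2 nM biotinylated peptide for 30 min at room temperature, tested under both no-wash and wash (1 h compound, media exchange, 1 h) formats.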

IC50 | Structure (SMILES)
0.014 µM | CCCCCCN1CC(=O)N[C@@H](Cc2ccc(O)cc2)C(=O)N[C@@H](CCCC)C(=O)N[C@@H](CC(N)=O)C(=O)N[C@@H](CCCNC(=N)N)C(=O)N[C@@H](CC(C)C)C(=O)N[C@@H](CCCCC)C(=O)N2CCC[C@H]2C(=O)N[C@@H](C(C)C)C(=O)N[C@@H](CO)C(=O)N[C@H](C(=O)NCC(=O)O)CSCC(=O)N[C@@H](Cc2ccccc2)C(=O)N[C@@H](Cc2ccc(O)cc2)C(=O)N[C@@H](CC(=O)O)C1=O [Example 1046] ({CH2CO}-FYD[NHexGly]Y[Nle]NRL[Ahp(2)]PVSCG-OH; thioether N-14)
0.0322 µM | CCCCCCN1CC(=O)N[C@@H](Cc2ccc(O)cc2)C(=O)N[C@@H](CCC)C(=O)N[C@@H](CC(N)=O)C(=O)N[C@@H](CCCNC(=N)N)C(=O)N[C@@H](CC(C)C)C(=O)N[C@@H](CCCCC)C(=O)N2CCC[C@H]2C(=O)N[C@@H](C(C)C)C(=O)N[C@@H](CO)C(=O)N[C@H](C(=O)NCC(=O)O)CSCC(=O)N[C@@H](Cc2ccccc2)C(=O)N[C@@H](Cc2ccc(O)cc2)C(=O)N[C@@H](CC(=O)O)C1=O [Example 1047] ({CH2CO}-FYD[NHexGly]Y[Nva]NRL[Ahp(2)]PVSCG-OH; thioether N-14)
0.0224 µM | CCCCCCN1CC(=O)N[C@@H](Cc2ccc(O)cc2)C(=O)N[C@@H](CCCC)C(=O)N[C@@H](CC(=O)O)C(=O)N[C@@H](CCCN)C(=O)N[C@@H](CC(C)C)C(=O)N[C@@H](CCCCC)C(=O)N2CCC[C@H]2C(=O)N[C@@H](C(C)C)C(=O)N[C@@H](CO)C(=O)N[C@H](C(=O)NCC(N)=O)CSCC(=O)N[C@@H](Cc2ccccc2)C(=O)N[C@@H](Cc2ccc(O)cc2)C(=O)N[C@@H](CC(=O)O)C1=O [Example 1048] ({CH2CO}-FYD[NHexGly]Y[Nle]D[Orn]L[Ahp(2)]PVSCG-NH2; thioether N-14)
0.0095 µM | CCCCCCN1CC(=O)N[C@@H](Cc2ccc(O)cc2)C(=O)N[C@@H](CC(C)C)C(=O)NCC(=O)N[C@@H](CCCNC(=N)N)C(=O)N[C@@H](CC(C)C)C(=O)N[C@@H](CCCCC)C(=O)N2CCC[C@H]2C(=O)N[C@@H](C(C)C)C(=O)N[C@@H](CO)C(=O)N[C@H](C(=O)NCC(N)=O)CSCC(=O)N[C@@H](Cc2ccccc2)C(=O)N[C@@H](Cc2ccc(O)cc2)C(=O)N[C@@H](CC(=O)O)C1=O [Example 1049] ({CH2CO}-FYD[NHexGly]YLGRL[Ahp(2)]PVSCG-NH2; thioether N-14)
0.0299 µM | CCCCCCN1CC(=O)N[C@@H](Cc2ccc(O)cc2)C(=O)N[C@@H](CCCC)C(=O)NCC(=O)N[C@@H](CCCNC(=N)N)C(=O)N[C@@H](CC(C)C)C(=O)N[C@@H](CCCCC)C(=O)N2CCC[C@H]2C(=O)N[C@@H](C(C)C)C(=O)N[C@@H](CO)C(=O)N[C@H](C(=O)NCC(N)=O)CSCC(=O)N[C@@H](Cc2ccccc2)C(=O)N[C@@H](Cc2ccc(O)cc2)C(=O)N[C@@H](CC(=O)O)C1=O [Example 1050] ({CH2CO}-FYD[NHexGly]Y[Nle]GRL[Ahp(2)]PVSCG-NH2; thioether N-14)
0.0115 µM | CCCCCCN1CC(=O)N[C@@H](Cc2ccc(O)cc2)C(=O)N[C@@H](CCCCN)C(=O)N[C@@H](CC(=O)O)C(=O)N[C@@H](CCCN)C(=O)N[C@@H](CC(C)C)C(=O)N[C@@H](CCCCC)C(=O)N2CCC[C@H]2C(=O)N[C@@H](C(C)C)C(=O)N[C@@H](CO)C(=O)N[C@H](C(=O)NCC(=O)O)CSCC(=O)N[C@@H](Cc2ccccc2)C(=O)N[C@@H](Cc2ccc(O)cc2)C(=O)N[C@@H](CC(=O)O)C1=O [Example 1051] ({CH2CO}-FYD[NHexGly]YKD[Orn]L[Ahp(2)]PVSCG-OH; thioether N-14)
0.0271 µM | CCCCCCN1CC(=O)N[C@@H](Cc2ccc(O)cc2)C(=O)N[C@@H](CCCCN)C(=O)N[C@@H](CC(=O)O)C(=O)N[C@@H](CCCNC(=N)N)C(=O)N[C@@H](CC(C)C)C(=O)N[C@@H](CCCCC)C(=O)N2CCC[C@H]2C(=O)N[C@@H](C(C)C)C(=O)N[C@@H](CO)C(=O)N[C@H](C(=O)NCC(=O)O)CSCC(=O)N[C@@H](Cc2ccccc2)C(=O)N[C@@H](Cc2ccc(O)cc2)C(=O)N[C@@H](CC(=O)O)C1=O [Example 1052] ({CH2CO}-FYD[NHexGly]YKDRL[Ahp(2)]PVSCG-OH; thioether N-14)
0.0207 µM | CCCCCCN1CC(=O)N[C@@H](Cc2ccc(O)cc2)C(=O)N[C@@H](CCCCN)C(=O)NCC(=O)N[C@@H](CCCNC(=N)N)C(=O)N[C@@H](CC(C)C)C(=O)N[C@@H](CCCCC)C(=O)N2CCC[C@H]2C(=O)N[C@@H](C(C)C)C(=O)N[C@@H](CO)C(=O)N[C@H](C(=O)NCC(=O)O)CSCC(=O)N[C@@H](Cc2ccccc2)C(=O)N[C@@H](Cc2ccc(O)cc2)C(=O)N[C@@H](CC(=O)O)C1=O [Example 1053] ({CH2CO}-FYD[NHexGly]YKGRL[Ahp(2)]PVSCG-OH; thioether N-14)
0.0297 µM | CCCCCCN1CC(=O)N[C@@H](Cc2ccc(O)cc2)C(=O)N[C@@H](C(C)C)C(=O)NCC(=O)N[C@@H](CCCNC(=N)N)C(=O)N[C@@H](CC(C)C)C(=O)N[C@@H](CCCCC)C(=O)N2CCC[C@H]2C(=O)N[C@@H](C(C)C)C(=O)N[C@@H](CO)C(=O)N[C@H](C(=O)NCC(N)=O)CSCC(=O)N[C@@H](Cc2ccccc2)C(=O)N[C@@H](Cc2ccc(O)cc2)C(=O)N[C@@H](CC(=O)O)C1=O [Example 1054] ({CH2CO}-FYD[NHexGly]YVGRL[Ahp(2)]PVSCG-NH2; thioether N-14)
0.0369 µM | CCCCCCN1CC(=O)N[C@@H](Cc2ccc(O)cc2)C(=O)N[C@@H](C(C)CC)C(=O)NCC(=O)N[C@@H](CCCNC(=N)N)C(=O)N[C@@H](CC(C)C)C(=O)N[C@@H](CCCCC)C(=O)N2CCC[C@H]2C(=O)N[C@@H](C(C)C)C(=O)N[C@@H](CO)C(=O)N[C@H](C(=O)NCC(N)=O)CSCC(=O)N[C@@H](Cc2ccccc2)C(=O)N[C@@H](Cc2ccc(O)cc2)C(=O)N[C@@H](CC(=O)O)C1=O (stereo partly shown) [Example 1055] ({CH2CO}-FYD[NHexGly]Y[Ile(3ξ)]GRL[Ahp(2)]PVSCG-NH2; thioether N-14)
0.0171 µM | CCCCCCN1CC(=O)N[C@@H](Cc2ccc(O)cc2)C(=O)N[C@@H](CCCCC)C(=O)N[C@@H](CCCCN)C(=O)N[C@@H](CCCNC(=N)N)C(=O)N[C@@H](CC(C)C)C(=O)N[C@@H](CCCCC)C(=O)N2CCC[C@H]2C(=O)N[C@@H](C(C)C)C(=O)N[C@@H](CO)C(=O)N[C@H](C(=O)NCC(N)=O)CSCC(=O)N[C@@H](Cc2ccccc2)C(=O)N[C@@H](Cc2ccc(O)cc2)C(=O)N[C@@H](CC(=O)O)C1=O [Example 1056] ({CH2CO}-FYD[NHexGly]Y[Ahp(2)]KRL[Ahp(2)]PVSCG-NH2; thioether N-14)
0.0351 µM | CCCCCCN1CC(=O)N[C@@H](Cc2ccc(O)cc2)C(=O)N[C@@H](CCCCC)C(=O)N[C@@H](CCC(=O)O)C(=O)N[C@@H](CCCNC(=N)N)C(=O)N[C@@H](CC(C)C)C(=O)N[C@@H](CCCCC)C(=O)N2CCC[C@H]2C(=O)N[C@@H](C(C)C)C(=O)N[C@@H](CO)C(=O)N[C@H](C(=O)NCC(N)=O)CSCC(=O)N[C@@H](Cc2ccccc2)C(=O)N[C@@H](Cc2ccc(O)cc2)C(=O)N[C@@H](CC(=O)O)C1=O [Example 1057] ({CH2CO}-FYD[NHexGly]Y[Ahp(2)]ERL[Ahp(2)]PVSCG-NH2; thioether N-14)
0.0387 µM | CCCCCCN1CC(=O)N[C@@H](Cc2ccc(O)cc2)C(=O)N[C@@H](CCCCN)C(=O)N[C@@H](CC(N)=O)C(=O)N[C@@H](CCCNC(=N)N)C(=O)N[C@@H](CC(C)C)C(=O)N[C@@H](CCCCC)C(=O)N2CCC[C@H]2C(=O)N[C@@H](C(C)C)C(=O)N[C@@H](CO)C(=O)N[C@H](C(=O)NCC(=O)O)CSCC(=O)N[C@@H](Cc2ccccc2)C(=O)N[C@@H](Cc2ccc(O)cc2)C(=O)N[C@@H](CC(=O)O)C1=O [Example 1058] ({CH2CO}-FYD[NHexGly]YKNRL[Ahp(2)]PVSCG-OH; thioether N-14)
0.03 µM | CCCCCCN1CC(=O)N[C@@H](Cc2ccc(O)cc2)C(=O)N[C@@H](C(C)CC)C(=O)NCC(=O)N[C@@H](CCCNC(=N)N)C(=O)N[C@@H](CC(C)C)C(=O)N[C@@H](CCCCC)C(=O)N2CCC[C@H]2C(=O)N[C@@H](C(C)C)C(=O)N[C@@H](CO)C(=O)N[C@H](C(=O)NCC(=O)O)CSCC(=O)N[C@@H](Cc2ccccc2)C(=O)N[C@@H](Cc2ccc(O)cc2)C(=O)N[C@@H](CC(=O)O)C1=O (stereo partly shown) [Example 1059] ({CH2CO}-FYD[NHexGly]Y[Ile(3ξ)]GRL[Ahp(2)]PVSCG-OH; thioether N-14)
0.0299 µM | CCCCCCN1CC(=O)N[C@@H](Cc2ccc(O)cc2)C(=O)N[C@@H](CCC)C(=O)NCC(=O)N[C@@H](CCCNC(=N)N)C(=O)N[C@@H](CC(C)C)C(=O)N[C@@H](CCCCC)C(=O)N2CCC[C@H]2C(=O)N[C@@H](C(C)C)C(=O)N[C@@H](CO)C(=O)N[C@H](C(=O)NCC(N)=O)CSCC(=O)N[C@@H](Cc2ccccc2)C(=O)N[C@@H](Cc2ccc(O)cc2)C(=O)N[C@@H](CC(=O)O)C1=O [Example 1060] ({CH2CO}-FYD[NHexGly]Y[Nva]GRL[Ahp(2)]PVSCG-NH2; thioether N-14)
0.0463 µM | CCCCCCN1CC(=O)N[C@@H](Cc2ccc(O)cc2)C(=O)N[C@@H](CCC)C(=O)NCC(=O)N[C@@H](CCCNC(=N)N)C(=O)N[C@@H](CC(C)C)C(=O)N[C@@H](CCCCC)C(=O)N2CCC[C@H]2C(=O)N[C@@H](C(C)C)C(=O)N[C@@H](CO)C(=O)N[C@H](C(=O)NCC(=O)O)CSCC(=O)N[C@@H](Cc2ccccc2)C(=O)N[C@@H](Cc2ccc(O)cc2)C(=O)N[C@@H](CC(=O)O)C1=O [Example 1061] ({CH2CO}-FYD[NHexGly]Y[Nva]GRL[Ahp(2)]PVSCG-OH; thioether N-14)
